“Also recorded” adds a separate entry of the source.
How the values were obtained:
[1] = Rapid equilibrium dialysis assay, free fraction; assay type: in vitro ADME; conditions: rat, read-out: free fraction in rat blood
Text: Five pharmacokinetic studies have been performed; four in male Wistar rats and one in male Swiss mice.

male Wistar rats = experiment: Rotarod performance, pilot experiment; assay type: in vivo, rat; conditions: acute, dose range 10-55 mg/kg, 20 min after administration
mice, elevated plus maze = experiment: Elevated plus maze (EPM) test; assay type: in vivo, mouse; conditions: 3 mg/kg or 10 mg/kg i.p., 10 min before the tests
Procedure: The epm test was conducted in a plexiglas maze apparatus (San Diego Instruments, San Diego, Calif.), consisting of a central platform (5×5 cm) with four arms (30×5 cm); two open and two closed arms with 25 cm-high sidewalls. The maze is elevated 38.5 cm from the room's floor. The mouse was placed at the central platform of the maze facing one of open arms and its behaviors in the maze were video-recorded and analyzed every 5 min-test session by the ethovision video tracking system (noldus information technology, wageningen, netherlands). The time spent for each mouse in the open or closed arm or the central platform as well as the distances traveled in the open or closed arm were measured. The degree of anxiety was accessed by the ratio of the time spent or the distance traveled in two open arms in a 5 min-test session.

[2] = test system: c-Fos-ir neurons in the TNC of Wistar rats; experiment: Migraine model: capsaicin (i.c.)-induced neuronal activation in the TCC; assay type: in vivo, rat; conditions: i.p., capsaicin 10 nmol i.c., 2 hours after
Procedure: Intra-cisteral instillation of capsaicin. Under anesthesia with chloral hydrate (400 and 100 mg/kg, i.p., respectively, for inducing and maintaining), the rat received a midline skin incision from the occipital protuberance to the upper cervical area. After catheterization with a catheter (PE-10, SIMS Portex Ltd, Hythe, UK) inserted 3 mm deep into the cisterna magna, the rat was placed in a prone position for 6 h. Then, the capsaicin solution (10 nmol, 100 μL) was instilled through the catheter into the cisterna magna over 1 min. The rat was then placed in a reverse Trendelenburg position (−30 degrees) for 30 min in order to facilitate capsaicin distribution within the subarachnoid space, followed by the prone position for another 90 min. […]
Measurement of the total number of C-fos-ir neurons in the TCC. C-Fos-ir neurons, i.e., neurons with stained nuclei, were counted under a microscope (Olympus BX51, Essex, UK) by an observer blinded to the treatment group. […] The total number of c-Fos-ir TCC neurons were estimated based on the formular derived in our previous study (Fan et al., 2012): 16(N1+N2)/2+53(N2+N3)/2, where N1, N2, and N3 were the c-Fos-ir neuronal numbers measured at […] from the obex, respectively.

mice, motor coordination = experiment: Rotarod test; assay type: in vivo, mouse; conditions: 3 mg/kg, 15 min after treatment
Procedure: The motor coordinating activity of the mouse was measured by its performance on a rotarod in the sdi rotor-rodtm system (San Diego Instruments, San Diego, Calif.). The mouse was trained four times a day for 3 days until it could stay on the rotating drum at a rotating speed of 24 rpm for at least 120 sec. Then, the mouse was subjecting to the rotarod test at the rotating speed accelerating gradually from 0 to 30 rpm, and the latency to fall from the rotating drum was recorded. The cut-off time for the latency to fall was 300 sec. Animals were treated with the tested drug or vehicle for 15 min before receiving the test.

[3] = test system: mice, apomorphine-induced stereotypy climbing; experiment: Apomorphine-induced stereotypy behaviors; assay type: in vivo, mouse; conditions: 3 mg/kg i.p., apomorphine 1 mg/kg s.c.
Procedure: The mouse was placed into a lidded cylindrical cage (diameter: 12 cm; height: 14 cm) made with 1 cm-separated metal grids for 1 hour's habituation. Then, the mouse received apomorphine (1 mg/kg, s.c.) Injection. The behaviors of the mouse were videotaped, and the stereotypy behaviors were scored every 5 min for 1 min, starting from 15 min before apomorphine injection until 60 min after injection.
The stereotypy behaviors induced by apomorphine were scored by reference to a previous report (Park et al. 2003) with modifications as the followings: 0: normal behaviors (sleeping, normal sniffing); 1: increased activity and sniffing (grooming, rearing, paw licking, jumping); 2: occasional clinging to the side wall of the cage with forepaws; 3: intermittent clinging to the top lid of the cage with all four paws; 4: uninterrupted climbing with all four paws to the top lid. The highest rating score during the 1 min-recording period was counted.

| SMILES | fraction unbound [1] | rotarod performance (male Wistar rats) | anxiolytic activity (mice, elevated plus maze) | number of c-Fos-ir neurons in the TNC induced by i.c. capsaicin [2] | motor coordination in the rotarod test (mice, motor coordination) | stereotypy climbing behaviors induced by apomorphine [3] |
| --- | --- | --- | --- | --- | --- | --- |
| [2H]C([2H])([2H])Oc1ccc(-n2nc3c4ccc(OC)cc4[nH]cc-3c2=O)cc1 [DK-I-56-1, 7-Methoxy-2-(4-methoxy-d3-phenyl)-2,5-dihydro-3H-pyrazolo[4,3-c]quinolin-3-one] | < 0.005 | did not impair |  |  |  |  |
| COc1ccc(-n2nc3c4ccc(OC)cc4[nH]cc-3c2=O)cc1 [Compound 6, 7-Methoxy-2-(4-methoxyphenyl)-2,5-dihydro-3H-pyrazolo[4,3-c]quinolin-3-one] |  |  | neither displayed any significant | significantly decreased; also recorded: reduces | did not affect | did not affect |

Reference: US10865203B2, “Ligands selective to alpha 6 subunit-containing GABAA receptors and their methods of use” (UWM Research Foundation, Inc., priority 2015, dated 2020)
